This note sets out measurements from PubChem BioAssay (NCI).

Test systems include MCF7 breast; SN12C renal; NCI-H23 lung; K-562 leukemia; SK-MEL-28 melanoma; LOX IMVI melanoma; PC-3 prostate; 786-0 renal; COLO 205 colon; CCRF-CEM leukemia.
Holding throughout (experiment): NCI anticancer screen, dose series, 48 h

“And” between values parts separate entries of the source, which are not always exact repeats. Equal values may be shown once.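 In this assay, cells in 96-well plates receive the compound at five concentrations for 48 hours. Endpoints are linearly interpolated between the surrounding concentrations. GI50 marks 50% less growth. The concentration for full growth arrest is given as TGI.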

On to `COc1ccc2c(c1)nc(NNC(=O)c1cnccn1)c1cccn12`, for which the GI50 in the assay with MCF7 breast is 0.266 µM; in the assay on SN12C renal, 0.408 µM; in the assay with NCI-H23 lung it was 0.64 µM; in the assay with K-562 leukemia it was 0.393 µM; in the assay with SK-MEL-28 melanoma, 0.444 µM; in the assay with LOX IMVI melanoma it was 0.0837 µM. For the same compound, the GI50 in the assay on PC-3 prostate was 0.285 µM; in the assay with 786-0 renal it was 0.432 µM; in the assay on COLO 205 colon, 0.264 µM; with CCRF-CEM leukemia, 0.0678 µM. In addition, the TGI is 1.86 µM in the assay on MCF7 breast; 3.37 µM in the assay on SN12C renal; 5.24 µM in the assay on NCI-H23 lung; greater than 100 µM with K-562 leukemia; 3.52 µM with SK-MEL-28 melanoma; 1.57 µM in the assay on LOX IMVI melanoma. The TGI in the assay with PC-3 prostate was 4.85 µM; in the assay on 786-0 renal it was 2.18 µM; with COLO 205 colon, 3.01 µM; in the assay on CCRF-CEM leukemia, greater than 44.1 µM.

For `O=[N+]([O-])c1cc[n+]([O-])c2ccccc12`, the GI50 was 0.047 µM in the assay on MCF7 breast; 0.244 µM in the assay with SN12C renal; 0.328 µM in the assay on NCI-H23 lung; 0.26 µM in the assay with K-562 leukemia; 1.24 µM in the assay on SK-MEL-28 melanoma; 0.156 µM in the assay on LOX IMVI melanoma. Also, the GI50 in the assay on PC-3 prostate was 0.222 µM; in the assay on 786-0 renal it was 0.217 µM; in the assay with COLO 205 colon it was 0.153 µM; in the assay with CCRF-CEM leukemia, 1.55 µM. Moreover, the TGI was determined as 2.2 µM in the assay on MCF7 breast; 1.13 µM with SN12C renal; 1.56 µM in the assay with NCI-H23 lung; 2.07 µM with K-562 leukemia; 2.64 µM in the assay with SK-MEL-28 melanoma; 0.418 µM in the assay with LOX IMVI melanoma. Besides, the TGI in the assay on PC-3 prostate amounted to 2.36 µM; in the assay on 786-0 renal, 0.753 µM; in the assay with COLO 205 colon, 0.488 µM; in the assay with CCRF-CEM leukemia, 5.27 µM.

For the compound `O=C(O)C[C@H](O)C[C@H](O)/C=C/c1c(C2CC2)nc2ccccc2c1-c1ccc(F)cc1`, the GI50 is 54.7 µM and > 21.9 µM in the assay on MCF7 breast; 2.4 µM and 0.668 µM with SN12C renal; 8.75 µM and 3.31 µM in the assay on NCI-H23 lung; 6.4 µM and 7.73 µM in the assay on K-562 leukemia; 27.4 µM and 7.7 µM in the assay with SK-MEL-28 melanoma; 1.33 µM in the assay with LOX IMVI melanoma. The GI50 in the assay on PC-3 prostate was 0.508 µM and 0.423 µM; with 786-0 renal it was 21.6 µM and 2.86 µM; in the assay with COLO 205 colon, 43.3 µM and 8.98 µM; in the assay with CCRF-CEM leukemia it was 58.4 µM and 25.8 µM. In addition, the TGI in the assay with MCF7 breast was greater than 100 µM; in the assay on SN12C renal, greater than 100 µM; with NCI-H23 lung, greater than 100 µM; in the assay on K-562 leukemia it was greater than 100 µM; in the assay with SK-MEL-28 melanoma, greater than 100 µM; in the assay with LOX IMVI melanoma, 13.9 µM. Further, the TGI in the assay on PC-3 prostate, with 786-0 renal, in the assay with COLO 205 colon and with CCRF-CEM leukemia was greater than 100 µM each time.

`N#Cc1nc(-c2ccc(F)cc2)oc1S(=O)(=O)N1CCCCC1`: the GI50 in the assay with MCF7 breast is 1.69 µM; in the assay on SN12C renal it was 1.65 µM; in the assay on NCI-H23 lung, 2.14 µM; in the assay with K-562 leukemia, 2.43 µM; in the assay on SK-MEL-28 melanoma, 1.75 µM; with LOX IMVI melanoma it was 1.19 µM. For the same compound, the GI50 with PC-3 prostate is 1.81 µM; with 786-0 renal it was 1.8 µM; with COLO 205 colon, 2.07 µM; with CCRF-CEM leukemia it was 0.954 µM. Moreover, the TGI is 3.82 µM with MCF7 breast; 3.11 µM with SN12C renal; 4.92 µM with NCI-H23 lung; greater than 100 µM with K-562 leukemia; 3.28 µM in the assay on SK-MEL-28 melanoma; 2.69 µM in the assay on LOX IMVI melanoma. Further, the TGI in the assay with PC-3 prostate is 3.7 µM; in the assay with 786-0 renal, 3.53 µM; in the assay with COLO 205 colon, 4.2 µM; in the assay on CCRF-CEM leukemia, greater than 100 µM.

As to `C=CC(=O)N1CCC(c2ccc(C(N)=O)c(-c3ccc(Oc4ccccc4)cc3)n2)CC1`, the GI50 with MCF7 breast was 22.7 µM; in the assay with SN12C renal, 28.2 µM; in the assay on NCI-H23 lung, 34.6 µM; with K-562 leukemia it was 26.9 µM; with SK-MEL-28 melanoma, 51.5 µM; with LOX IMVI melanoma, 26.3 µM. The GI50 in the assay on PC-3 prostate is 29.5 µM; in the assay with 786-0 renal it was 31.9 µM; in the assay with COLO 205 colon it was 42 µM; with CCRF-CEM leukemia it was 33.9 µM. For the same compound, the TGI with MCF7 breast, in the assay with SN12C renal, in the assay with NCI-H23 lung, with K-562 leukemia, in the assay on SK-MEL-28 melanoma and in the assay with LOX IMVI melanoma was greater than 100 µM throughout. In addition, the TGI in the assay on PC-3 prostate, with 786-0 renal, in the assay on COLO 205 colon and with CCRF-CEM leukemia was greater than 100 µM in each case.

Regarding `COc1ccc(-c2cc(=O)n(-c3nc4ccccc4[nH]3)[nH]2)cc1OC`, the GI50 with MCF7 breast is 4.74 µM; in the assay with SN12C renal it was 8.85 µM; in the assay with K-562 leukemia it was 3.73 µM; in the assay with SK-MEL-28 melanoma it was 13.9 µM; in the assay with LOX IMVI melanoma, 6.73 µM; in the assay with PC-3 prostate it was 3.8 µM. The GI50 in the assay with 786-0 renal was 12.4 µM; in the assay on COLO 205 colon it was 35.8 µM; with CCRF-CEM leukemia it was 2.66 µM. For the same compound, the TGI in the assay with MCF7 breast is greater than 100 µM; in the assay on SN12C renal, greater than 100 µM; with K-562 leukemia, 25.7 µM; in the assay with SK-MEL-28 melanoma, greater than 100 µM; with LOX IMVI melanoma it was greater than 100 µM; in the assay on PC-3 prostate, greater than 100 µM. In addition, the TGI is greater than 100 µM in the assay with 786-0 renal, greater than 100 µM in the assay with COLO 205 colon and 38.1 µM in the assay with CCRF-CEM leukemia.

For `OCCCCC#Cc1ccccc1C#Cc1ccc(O)cc1`, the GI50 is 17.4 µM in the assay on MCF7 breast; 18.8 µM in the assay on SN12C renal; 14.3 µM with NCI-H23 lung; 20.4 µM in the assay on K-562 leukemia; 14.2 µM in the assay on SK-MEL-28 melanoma; 13.6 µM with LOX IMVI melanoma. Further, the GI50 was 17.2 µM in the assay with PC-3 prostate, 19.4 µM in the assay with 786-0 renal, 21.6 µM in the assay on COLO 205 colon and 7.35 µM in the assay with CCRF-CEM leukemia. The TGI in the assay on MCF7 breast turned out to be 49.2 µM; with SN12C renal, 34.8 µM; in the assay on NCI-H23 lung it was 28.7 µM; in the assay with K-562 leukemia, 45 µM; with SK-MEL-28 melanoma, 27.8 µM; in the assay on LOX IMVI melanoma, 27.7 µM. Further, the TGI with PC-3 prostate came out at 35.2 µM; in the assay with 786-0 renal it was 36.2 µM; with COLO 205 colon it was 45.9 µM; with CCRF-CEM leukemia, 26.1 µM.

As to `CN1C(=O)c2ccc3ccccc3c2C1=O`, the TGI with MCF7 breast, in the assay on SN12C renal, with NCI-H23 lung, with K-562 leukemia, in the assay with SK-MEL-28 melanoma and with PC-3 prostate was greater than 100 µM in each case. In addition, the TGI with 786-0 renal, in the assay with COLO 205 colon and in the assay on CCRF-CEM leukemia was greater than 100 µM in each case.
